{"source": "paper PMC8172577", "about": "“A Novel Antimicrobial Peptides From Pine Needles of Pinus densiflora Sieb. et Zucc. Against Foodborne Bacteria” (Frontiers in Microbiology, 2021)", "type_in_all_cases": "cell-based", "key": {"[1]": {"tested_on": "Escherichia coli ATCC25922", "conditions": "minimal concentration of peptide to inhibit microbial growth; 5 × 10^5 CFU/ml, 18 h at 37°C, OD 600 nm", "procedure": "(§1) For antimicrobial assays, Escherichia coli ATCC 25922, Pseudomonas aeruginosa ATCC 15692, Staphylococcus aureus ATCC 25923, and Staphylococcus epidermidis ATCC 12228 were obtained from the American Type Culture Collection (Manassas, VA, United States). Salmonella typhimurium KCTC 1926 and Listeria monocytogenes KCTC 3710 were obtained from the Korean Collection for Type Cultures (Jeollabuk-do, Korea).\n(§2) Minimum inhibitory concentrations (MICs) of purified PN peptides were assayed according to the Clinical and Laboratory Standards Institute recommendations ([Wiegand et al., 2008]). Briefly, bacterial suspension (5 × 10^5 CFU/ml), obtained by diluting an exponential growth phase culture, was then added into the 96-well plates containing 2-fold serial dilutions of each fraction, the plates were incubated for 18 h at 37°C. MICs of PN peptides were measured in optical density at 600 nm using Versamax™ ELISA Microplate Reader (Molecular Devices, Sunnyvale, CA, United States). PBS, culture media, and melittin were used as growth and growth inhibition controls. The MIC was defined as the lowest concentration of PN peptide that was able to inhibit microbial growth."}, "[2]": {"tested_on": "Listeria monocytogenes KCTC3710", "conditions": "minimal concentration of peptide to inhibit microbial growth; 5 × 10^5 CFU/ml, 18 h at 37°C, OD 600 nm", "procedure": "as §1, §2"}, "[3]": {"tested_on": "Salmonella typhimurium KCTC1926", "conditions": "minimal concentration of peptide to inhibit microbial growth; 5 × 10^5 CFU/ml, 18 h at 37°C, OD 600 nm", "procedure": "as §1, §2"}, "[4]": {"tested_on": "Staphylococcus aureus ATCC25923", "conditions": "for Increased in MIC (fold): compared to the soluble extract", "procedure": "as §1, §2"}, "[5]": {"tested_on": "mouse red blood cells (mRBCs)", "test": "Hemolytic activity", "conditions": "60 min at 37°C", "procedure": "Hemolysis was determined using the mouse red blood cells (mRBCs). Fresh mRBCs were collected in PBS and washed three times with PBS (final mRBC concentration, 8% v/v). […] Hemolytic activity was monitored at an absorbance (A) of 414 nm and calculated as a positive control [0.1% Triton X-100 (Atriton)] and negative control [PBS (Ablank)]. The resulting values of cells that underwent hemolysis were calculated according to equation ([Park et al., 2008]):\n(1) Hemolysis=[(Asample−Ablank)/(Atriton−Ablank)]×100%"}, "[6]": {"tested_on": "HaCaT (human keratinocytes) cells", "test": "Cytotoxicity, MTT assay, HaCaT", "procedure": "(§3) The cytotoxic effect of PN peptides was assessed against HaCaT (human keratinocytes) and RAW264.7 (mouse macrophages) cells cultured in 96-well plates at a density of 2 × 10^4 cells/well in Dulbecco’s modified Eagle medium (DMEM) containing 10% fetal bovine serum. MTT [3-(4,5-dimethylthiazol-2-yl)-2,5-diphenyltetrazolium bromide] assays were used to evaluate cytotoxicity. PN peptides (0–200 μg/ml) were added with the cells for 24 h at 37°C. Subsequently, MTT (0.5 mg/ml) was added to each well and incubated for 4 h at 37°C After incubation, formazan crystals produced was dissolved in dimethyl sulfoxide, and the absorbance at 570 nm was measured and cytotoxicity was determined as a percentage of 100% cytotoxic control (0.1% Triton X-100; [Park et al., 2008]). Melittin was used as the control (reference) peptide."}, "[7]": {"tested_on": "RAW264.7 (mouse macrophages) cells", "test": "Cytotoxicity, MTT assay, RAW264.7", "conditions": "12.5 μg/ml, 24 h", "procedure": "as §3"}, "[8]": {"conditions": "minimal concentration of peptide to inhibit microbial growth, 5 × 10^5 CFU/ml, 18 h at 37°C, OD 600 nm"}}, "note": "Read-outs that look alike come from different tables or passages of the source. Where no end group is shown, it is not given here.", "data": [{"molecule": "FKFLARTGKFL [PN5]", "values": [{"measurement": "MIC", "setting": "[1]", "value": 64, "unit": "µg/mL"}, {"measurement": "MIC", "setting": "[2]", "value": 32, "unit": "µg/mL"}, {"measurement": "MIC", "setting": "[3]", "value": 64, "unit": "µg/mL"}, {"measurement": "MIC", "setting": "[4]; [8]", "value": 32, "unit": "µg/mL"}, {"measurement": "hemolysis", "setting": "[5]; 200 μg/ml, 8% v/v mRBCs in PBS, A414, vs 0.1% Triton X-100, n = 3", "value": "approximately 5%"}, {"measurement": "cytotoxicity", "setting": "[6]; 200 μg/ml, 24 h at 37°C, vs 0.1% Triton X-100, n = 3", "value": 19, "unit": "%"}]}, {"molecule": "FKFLARTGKFL-NH2 [PN5-NH2]", "values": [{"measurement": "MIC", "setting": "[1]", "value": 64, "unit": "µg/mL"}, {"measurement": "MIC", "setting": "[2]", "value": 32, "unit": "µg/mL"}, {"measurement": "MIC", "setting": "[3]", "value": 32, "unit": "µg/mL"}, {"measurement": "MIC", "setting": "[4]; [8]", "value": 16, "unit": "µg/mL"}]}, {"molecule": "CC[C@H](C)[C@H](NC(=O)CN)C(=O)NCC(=O)N[C@@H](C)C(=O)N[C@H](C(=O)N[C@@H](CC(C)C)C(=O)N[C@@H](CCCCN)C(=O)N[C@H](C(=O)N[C@@H](CC(C)C)C(=O)N[C@H](C(=O)N[C@H](C(=O)NCC(=O)N[C@@H](CC(C)C)C(=O)N1CCC[C@H]1C(=O)N[C@@H](C)C(=O)N[C@@H](CC(C)C)C(=O)N[C@H](C(=O)N[C@@H](CO)C(=O)N[C@@H](Cc1c[nH]c2ccccc12)C(=O)N[C@H](C(=O)N[C@@H](CCCCN)C(=O)N[C@@H](CCCNC(=N)N)C(=O)N[C@@H](CCCCN)C(=O)N[C@@H](CCCNC(=N)N)C(=O)N[C@@H](CCC(N)=O)C(=O)N[C@@H](CCC(N)=O)C(N)=O)[C@@H](C)CC)[C@@H](C)CC)[C@@H](C)O)[C@@H](C)O)C(C)C)C(C)C", "note": "[Melittin, reference compound]", "values": [{"measurement": "MIC", "setting": "[2]", "value": 4, "unit": "µg/mL"}, {"measurement": "MIC", "setting": "[3]", "value": 2, "unit": "µg/mL"}, {"measurement": "hemolysis at the lowest concentration", "setting": "[5]; 3 μg/ml, 8% v/v mRBCs", "value": "induced hemolysis"}, {"measurement": "lysis (cytotoxicity)", "setting": "[7]", "value": 100, "unit": "%"}, {"measurement": "lysis (cytotoxicity)", "setting": "[6]; 12.5 μg/ml, 24 h", "value": 100, "unit": "%"}]}, {"molecule": "FKFLARTGKFL [PN-#5, peptide purified from pine needles of Pinus densiflora by RP-HPLC, peak 5]", "values": [{"measurement": "MIC", "setting": "[1]", "value": 64, "unit": "µg/mL"}, {"measurement": "MIC", "setting": "[2]", "value": 32, "unit": "µg/mL"}, {"measurement": "MIC", "setting": "[3]", "value": 64, "unit": "µg/mL"}, {"measurement": "Increased in MIC (fold)", "setting": "[4]; after First C18 RP-HPLC", "value": 12.5, "unit": "fold"}, {"measurement": "Increased in MIC (fold)", "setting": "[4]; after Second C18 RP-HPLC", "value": 234.4, "unit": "fold"}, {"measurement": "MIC", "setting": "[4]; fraction after First C18 RP-HPLC, S. aureus ATCC25923", "value": 600, "unit": "µg/mL"}, {"measurement": "MIC", "setting": "[4]; fraction after Second C18 RP-HPLC, S. aureus ATCC25923", "value": 32, "unit": "µg/mL"}, {"measurement": "MIC", "setting": "[4]; [8]", "value": 32, "unit": "µg/mL"}]}]}
